Laboratory results published in patent US20240239818A1, “COMPOUNDS AND COMPOSITIONS COMPRISING FLUOROPHORES FOR USE IN VISUALIZATION AND PURIFICATION OR MANIPULATION” (priority 2022, published 2024).
“Also recorded” adds a separate entry of the source.

What was measured:
Format in all cases: cell-based
[1] = molecular target: T1, msGFP-HaloTag® fusion localized to the mitochondrial outer membrane (Rhodococcus rhodochrous, UniProt P0A3G2, A155T/A167V/A172T/A224E/C128F/C176G/D78G/E160K/E257K/H272N/K175M/K195N/L47V/L88M/N227D/S58T/T264A/Y273L/Y87F)
T1 construct: expressed in transfected cells; host or cells: HEK293T, calcium phosphate transfection
Method: HEK293T labeling and fluorescence microscopy. […] For pulse-chase experiments, HEK293T cells were incubated with biotin-HaloTag® ligand (6; #G8281, Promega) at either 100 nM or 10 μM for 1 hour at 37° C. and chased with 100 nM of JANELIA FLUOR® (JF)549-HaloTag® ligand (2HTL). […] For imaging, the coverslips containing HEK293T cells were fixed with 4% paraformaldehyde in PBS at 37° C. for 10 min, washed with PBS (3×), and mounted on glass slides with ProLong Glass Antifade Mountant with NucBlue™ Stain (ThermoFisher; P36981). These cells were imaged using a Zeiss LSM 880 with Airyscan and a plan-apochromatic 63×/1.40 oil objective in Fast Airyscan mode. The same image acquisition settings were used for each trial and condition. Images were then processed with automatic Airyscan deconvolution settings.

[2] = molecular target: T2, msGFP-HaloTag® fusion protein (mitochondria) from HEK293T cells (Rhodococcus rhodochrous, UniProt P0A3G2, A155T/A167V/A172T/A224E/C128F/C176G/D78G/E160K/E257K/H272N/K175M/K195N/L47V/L88M/N227D/S58T/T264A/Y273L/Y87F); assay: Affinity capture (streptavidin microbeads) and in-gel fluorescence; details: streptavidin beads
T2 construct: and (4) HaloTag®; expressed in transfected cells; host or cells: HEK293T, calcium phosphate transfection
Method: Affinity capture and in-gel fluorescence experiments. Affinity capture pulldown isolation experiments of biotin-labeled HaloTag® fusion proteins were performed on ice-cold isolation buffer (IB) consisting of KCl (0.18 M), ethylene glycol-bis(β-aminoethyl ether)-N,N,N′,N′-tetraacetic acid (EGTA; 1 mM), 3-(N-morpholino)propanesulfonic acid (MOPS; 5 mM); the pH was adjusted to pH=7.35 using KOH(aq).^51 HEK293T cells were scraped with 500 μL IB and homogenized using 12 strokes with a 27G syringe. The resulting homogenate was spun at 4° C. at 1000 g for 3 min to pellet large cellular debris. 50 μL of streptavidin-coated microbeads (Miltenyi, 130-048-101) were added to the supernatant and incubated for 30 min at 4° C. with slow rotation. LS columns (Miltenyi, 130-042-401) were prepared by first washing with 3 mL IB consisting of 2.5% bovine serum albumin (BSA; Jackson ImmunoResearch, 001-000-162) and then with plain IB (3×). Prior to supernatant-microbead mixture being loaded onto LS columns, 5% volume was taken for downstream total fraction calculations (i.e., the “total/20” sample). Columns and samples were kept at 4° C. (cold room) while samples were loaded onto columns and washed with IB (3×); this fraction was collected as designated as “wash”. After the washing step, the column was removed from the QuadroMACs magnet holder (Miltenyi, 130-092-857) and eluted with gentle plunge action into an Eppendorf tube; this was labeled as “eluate”. From here, there were three fractions for each condition: total/20, wash (unbound), and eluate (bound). Since mitochondria were being isolated, these samples were spun at 4° C. and 20,000 g to pellet mitochondria. These samples were then solubilized using the lysis buffer containing 1×PBS, 2% SDS, 1% Triton x-100, 10 mM EDTA, and protease inhibitors (2 mM PMSF, aprotinin, leupeptin, and pepstatin A). Samples were then incubated at 72° C. for 3-4 min after the addition of sample buffer (SB) (DTT, glycerol, and bromophenol blue). For protein detection, 10-20 μL of the sample was subjected to sodium dodecyl sulfate-polyacrylamide gel electrophoresis (SDS-PAGE), using 13% gels. The affinity capture pulldown efficiency was monitored using in-gel fluorescence. The msGFP signal from HaloTag®-TEV-4×GS-msGFP-mito after cell lysis and SDS-PAGE was analyzed, in-gel, using a BioRad Chemidoc MP imager (BioRad) through GFP fluorescence excitation and emission filters. Data were quantified by densitometry using Fiji.^52 Capture efficiency was calculated using equation 3:
[formula] • where Ieluate is the in-gel fluorescence intensity of the bead-bound fraction and Itotal/20 is the in-gel fluorescence intensity of the 5% of crude sample reserved for concentration control (i.e., the “total/20” sample).
Evaluation of biotin-HaloTag® ligand. A live cell permeable biotin reagent was saught for affinity pulldown of HaloTag® fusion proteins, given the broad utility of biotin conjugates in biochemistry and cell biology. To evaluate the performance of biotin-containing HaloTag® ligand, an assay was developed (FIG. 3A) where the HaloTag® is expressed as a fusion with monomeric superfolder green fluorescent protein (msGFP); the construct also included an OMP25 sequence to localize the fusion protein to the outer mitochondrial membrane, allowing straightforward imaging and affinity capture experiments.^28-29 HEK293T cells expressing this fusion protein were incubated with biotin-containing HaloTag® ligands followed by washing and cell lysis. The crude supernatant was incubated with streptavidin-coated magnetic microbeads, applied to a magnetic column, and washed. The magnet was removed, and the bead-bound mitochondria were eluted, lysed, and the resulting solution was analyzed by sodium dodecyl sulfate-polyacrylamide gel electrophoresis (SDS-PAGE) and in-gel fluorescence. To minimize dilution of the sample only the initial bead-bound fraction was collected, leaving some material on the column. […]

BRD4 [3] = molecular target: T3, BRD4 (Homo sapiens, UniProt O60885); assay: BRD4 recruitment to coilin-HaloTag® in live N2a cells (no wash lattice lightsheet microscopy); details: 100 nM
T3 construct: expressed in transfected cells; host or cells: N2a cells, transient transfection
Method: (§1) Live cell protein imaging and manipulation using JQ1-rhodamine-HaloTag® ligand. The ability of JQ1 ligands to recruit BET family protein BRD4 to HaloTag® fusion proteins at distinct genomic regions in N2a cells was then tested (FIG. 13A). N2a cells are neural progenitor cells that are frequently utilized to study neuronal differentiation and axonal growth. […] N2a cells were transiently transfected with plasmids encoding the HaloTag® protein fused to the following nuclear proteins: (1) constitutive heterochromatin marker heterochromatin protein 1 (HP1); (2) Cajal body component coilin; and (3) centromere localized histone H3 variant centromere protein A (CENP-A). These three proteins have a very distinct distribution in the nucleus than BRD4 which generally has an euchromatic distribution. Localization of BRD4 to specific gene loci can induce gene expression. […]
(§2) Initially, a side-by-side comparison of JF646 based 17 and JF635 based 18 was performed for recruiting BRD4 to coilin-HaloTag® under a “no wash” lattice lightsheet fluorescence microscopy setup. […] Advantageously, 18 also has lower absorptivity and negligible fluorescence quantum yield before HaloTag® conjugation. “No wash” imaging was performed and the fluorescence from JF635 and sfGFP were monitored. […] The […] HP1-HaloTag® labeled with either JF635-HaloTag® ligand (5HTL) or the JQ1 analog 18 were quantified (FIG. 13J).

BRD4 [4] = molecular target: T3, BRD4; assay: BRD4 recruitment to HP1-HaloTag® in live N2a cells (no wash lattice lightsheet microscopy); details: 100 nM
Method: as §1, §2

T1 sequence (P0A3G2 other isoform, or with tags, fused parts or gaps with the stated changes): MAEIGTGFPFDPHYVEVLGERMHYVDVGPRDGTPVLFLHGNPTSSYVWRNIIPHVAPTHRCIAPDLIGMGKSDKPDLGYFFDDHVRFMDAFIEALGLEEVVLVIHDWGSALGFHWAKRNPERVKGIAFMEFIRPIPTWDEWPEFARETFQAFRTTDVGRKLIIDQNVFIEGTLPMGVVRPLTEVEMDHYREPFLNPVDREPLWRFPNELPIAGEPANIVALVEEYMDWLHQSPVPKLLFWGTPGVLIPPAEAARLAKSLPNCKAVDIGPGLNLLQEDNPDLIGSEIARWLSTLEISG
T2 sequence (P0A3G2 other isoform, or with tags, fused parts or gaps with the stated changes): as above

For O=C(CCCC[C@@H]1SC[C@@H]2NC(=O)N[C@@H]21)NCCOCCOCCCCCCCl [compound 6, biotin-HaloTag® ligand], the “labeling of HaloTag®-msGFP fusion by pulse-chase (JF549/msGFP ratio after 2HTL chase)” value ([1]; HEK293T, 10 μM (μM concentrations), 1 h pulse) was “substantially reduced JF549/msGFP ratio; also recorded: labels the HaloTag®-msGFP fusion in living cells; also recorded: substantially labeled the HaloTag® protein fusion”, the “labeling of HaloTag®-msGFP fusion by pulse-chase” value ([1]; HEK293T, nanomolar concentration (100 nM)) was “poor labeling” and the “concentration required to achieve cellular labeling” value ([1]; live cells) was 10 µM. The “affinity capture (protein bound to streptavidin)” value [2] was “prevents purification of HaloTag®-expressing mitochondria; also recorded: no appreciable affinity capture”.
Cc1sc2c(c1C)C(c1ccc(Cl)cc1)=N[C@H](CC(=O)NCCCCOCCOCCNC(=O)C1(F)C[N+](=C3C=CC4=C(c5cc(C(=O)NCCOCCOCCCCCCCl)ccc5C(=O)[O-])c5ccc(N6CC(F)C6)cc5[Si](C)(C)C4=C3)C1)c1nnc(C)n1-2 (stereo partly drawn) [compound 19, (−)-JQ1-JF635-HaloTag® ligand] was tested, and the “BRD4 recruitment to coilin-HaloTag®” value (BRD4 [3]) was “did not result in BRD4 localization” and the “BRD4 localization to HP1-HaloTag®” value (BRD4 [4]) was “did not result in BRD4 localization”.
